Earlier results on 1 compound are cited in patent US10485768B2, “Treatment for glioblastoma” (SignPath Pharma Inc., priority 2015, dated 2019).

Molecules are shown by their SMILES.

The test system of one data set is C6 implant rat glioma. The note with it: C6 implant rat glioma model.
In data set [1] the test system is human primary and recurrent GBM cell lines.
A further data set has as its system human glioma U87 cells. The note with it: U87 cells xenografted into athymic mice.

Regarding `COc1cc(/C=C/C(=O)CC(=O)/C=C/c2ccc(O)c(OC)c2)ccc1O` [Curcumin, diferuloylmethane], the brain tumor volume result in the data set on C6 implant rat glioma is “reduction in brain tumor volume”. Also, in data set [1], the cell growth entry was “reduced cell growth”. Besides, the “growth of xenografted tumor cells” value in the data set with human glioma U87 cells is “suppress growth”.
